The nature of data set [1]: Europium titration experiments for determining extinction coefficients. It is filed as physicochemical. Here is the method: In order to determine accurate extinction coefficients for 16 and 16⋅Eu, titration experiments using europium chloride as the titrant were performed. Europium chloride hexahydrate (13.22 mg, 0.03608 mmol) was dissolved into 5 mM citrate buffer (pH=4) using a 100 mL volumetric flask to give a 0.3608 mM europium chloride solution, which was then titrated into a 0.5 mL solution of 16 in TBS buffer (Tris-buffered saline, 50 mM Tris, 150 mM NaCl, pH=7.6) using 5 μL aliquots. The UV-vis spectra were adjusted for the increase in solvent volume due to each injection. The results of the UV-vis titration are plotted in FIG. 3.
The volume of europium chloride corresponds to 16.70 nmol of europium, meaning the starting concentration of ligand 16 was 33.40 μM. […] These absorbance and concentration values yield extinction coefficients of 13,600 M^−1 cm^−1 and 14,300 M^−1 cm^−1 for the ligand 16 and the complex 16⋅Eu respectively.
In order to determine accurate extinction coefficients for 43 and 43⋅Eu, titration experiments using europium chloride as the titrant were performed. Europium chloride hexahydrate (47.58 mg, 0.1299 mmol) was dissolved into 50 mM citrate buffer (pH=4) using a 10 mL volumetric flask to give a 12.99 mM europium chloride solution, which was then transferred to a 100 mL volumetric flask and diluted 1:10 with water. The resulting 1.299 mM europium chloride solution (in 5 mM citrate buffer) was then titrated into a 1 mL solution of 43 in TBS buffer using 5 μL aliquots. The UV-vis spectra were adjusted for the increase in solvent volume due to each injection. The results of the UV-vis titration are plotted in FIG. 4.
The volume of europium chloride corresponds to 47.46 nmol of europium, meaning the starting concentration of ligand 43 was 47.46 μM. […] These absorbance and concentration values yield extinction coefficients of 13,000 M^−1 cm^−1 and 12,800 M^−1 cm^−1 for the ligand and complex respectively.
Titration of ligand 43 was also performed by luminescence (FIG. 5), monitoring the europium signal at 612 nm upon photoexcitation of the solution at 340 nm. The ligand solution used for the UV-vis titration of 43 mentioned above was first diluted 1:10 in TBS buffer. Similarly, the 1.299 mM stock europium solution was separately diluted 1:10 with water. […] The 32.99 μL equivalence point gives extinction coefficients of 14,400 M^−1 cm^−1 at 383 nm and 14,200 M^−1 cm^−1 at 357 nm for 43 and 43⋅Eu respectively. Averaging the values from both UV-vis and luminescence titration experiments of 43 yields extinction coefficients of 13,700 M^−1 cm^−1 at 383 nm and 13,500 M^−1 cm^−1 at 357 nm for 43 and 43⋅Eu respectively.

Data set [2] can be described thus: Stability of 43⋅Eu luminescence in the presence of ca. 25 mM competitors. It is filed as physicochemical. Here is the method: In order for a luminescent metal complex to be useful in a practical sense, it must be stable in the presence of common competitive metal cations and chelating ligands. We measured the stability of 43 ⋅Eu (ca. 7 μM) dissolved in TBS buffer, with various competitors present at ca. 25 mM concentration. Specifically, manganese dichloride tetrahydrate (14.8 mg, 74.8 μmol) was dissolved into TBS buffer (100 μL), and added to an aliquot of 43⋅Eu (3 mL), making the final concentration of Mn(II) 24.1 mM. Magnesium chloride hexahydrate (33.6 mg, 165 μmol) was dissolved into TBS buffer (200 μL), and 100 μL was added to an aliquot of 43⋅Eu (3 mL), making the final concentration of Mg(II) 26.7 mM. Calcium chloride hexahydrate (55.8 mg, 255 μmol) was dissolved into TBS buffer (300 μL), and 100 μL was added to an aliquot of 43 ⋅Eu (3 mL), making the final concentration of Ca(II) 27.4 mM. For DTPA, first KOH (95.9 mg, 1.71 mmol) was dissolved into 1 mL of water, and 389 μL of this basic solution (5 equivalents) was used to dissolve DTPA (52.3 mg, 133 μmol). Then, 219 μL of this DTPA solution was added to an aliquot of 43⋅Eu (3 mL), making the final concentration of DTPA 23.4 mM. EDTA (0.5 M, pH=8, 150 μL) was added to an aliquot of 43 ⋅Eu (3 mL), making the final concentration of EDTA 23.8 mM. For phosphate competition, the methanolic stock of 43⋅Eu was diluted to ca. 7 μM in 25 mM phosphate buffer (pH=8).

Results on one compound are retold here after US10239878B2, “Macrocyclic ligands with pendant chelating moieties and complexes thereof” (LUMIPHORE, INC., priority 2016, dated 2019).

Take `NCCOCCNC(=O)C1CCCN(C(=O)c2cccc(=O)n2[O-])CCCNC(=O)c2ccc(n([O-])c2=O)C(=O)NC2COCC2NC(=O)c2ccc(c(=O)n2[O-])C(=O)NCCCN1C(=O)c1cccc(=O)n1[O-].[Eu+3]` (mixture of isomers) [43⋅Eu]: the extinction coefficient is listed as 12,800 M^−1 cm^−1 in data set [1] (UV-vis titration with europium chloride, TBS buffer pH 7.6, at lambda max) and 14,200 M^−1 cm^−1 in data set [1] (luminescence titration (612 nm signal, 340 nm photoexcitation), at 383 nm (ligand) / 357 nm (complex)). Further, in data set [1] (UV-vis titration, TBS buffer), the lambda max worked out at 357 nm. Moreover, in data set [1] (at 383 nm (ligand) / 357 nm (complex)), the “extinction coefficient, average of UV-vis and luminescence titration” value is 13,500 M^−1 cm^−1. Besides, the “ε at λmax” value in data set [1] (by europium titration, TBS buffer pH 7.6) is reported as 13,500 M^−1cm^−1. Besides, the “change in sample brightness” value is reported as “no detectable change” in data set [2] (25 mM phosphate buffer pH=8, 24 hours); “no detectable change” in data set [2] (Ca(II) 27.4 mM, TBS buffer, 24 hours); “no detectable change” in data set [2] (Mg(II) 26.7 mM, TBS buffer, 24 hours). Moreover, the “brightness remaining (of the original brightness)” value in data set [2] (DTPA 23.4 mM, TBS buffer, after 24 hours) is listed as 83%. Moreover, the brightness remaining was determined as 96% in data set [2] (EDTA 23.8 mM, TBS buffer, 24 hours) and 89% in data set [2] (Mn(II) 24.1 mM, TBS buffer, 24 hours).
